# Results published in patent EP0346132A1, “Pharmaceutical products” (priority 1988, dated 1989).
# Entries after “also recorded” stand apart in the source; their conditions may differ. Read-outs that look alike come from different tables or passages of the source.
# Experiments:
# HIV [1] = experiment: Anti-HIV assay (protection of infected cells, XTT microculture tetrazolium assay); assay type: cell-based; settings: for inhibit the infection and killing of human T lymphocytes (Th cells) by HIV / activity against HIV: statement in words; for activity against HIV: in vitro
# Excerpt: (§1) Compound 14a was screened for anti-HIV activity at the National Cancer Institute, Frederick Cancer Research Facility, Frederick, Maryland (FCRF). The screening mode operational procedures utilized at FCRF are set forth in detail in U.S. patent application Serial No. 07/146,252, filed January 20, 1988, the disclosure of which is incorporated by reference herein.
# (§2) Figure 2 depicts a plot of the percentage of test cells over uninfected cells (%) for both infected and uninfected cells as a function of the increasing concentration of compound 14a.
# (§3) The data plotted on Figure 2 permit the calculation of an effective concentration (EC₅₀) with respect to infected cells of about 0.15 µg/ml, an inhibitory concentration (IC₅₀) with respect to normal cells of about 100 µg/ml, and a therapeutic index (TI₅₀) of about 667. An earlier assay carried out at the Southern Research Institute yielded a TI₅₀ of about 200 when MT-2 cells were cultured with H9/HTLV-IIIB.
# The following are the current screening mode operational procedures utilized at Southern Research Institute, Birmingham, AL. The procedure consists of 3 operations: 1) preparation of infected cells and distribution of the test plates; 2) preparation of drug dilution plates and distribution to the test plates; and 3) XTT assay procedure.
# (§4) Cells to be treated in 50 ml conical centrifuge tubes for 30 minutes with 1-2 µg/ml of polybrene at 37°C, and pelleted (8 min., 1200 RPM). Virus is added [in RMPI-1640, 10% fetal calf serum (FCS), with interleukin-2 (IL-2) (for ATH8 cells), and antibiotics] to provide an MOI of approximately 0.01. An MOI of 0.01 is obtained by adding 10³ infectious units of virus to 10⁵ cells. Medium alone is added to virus-free control cells. The treated or control cells are incubated for 1 hour at 37°C in 5% CO₂ in air. Infected or uninfected cells are diluted to give 1 x 10⁴ cells/100 µl (2 x 10⁴ cells/100 µl for ATH8 cells). Infected or uninfected cells (100 µl) are distributed to appropriate wells of a 96 well, U-bottom, microtiter plate. Each compound dilution is tested in duplicate with infected cells. Uninfected cells are examined for drug sensitivity in a single well for each dilution of compound. Drug free control cells, infected and uninfected, are run in triplicate in wells B3 through D3 and E3 through G3, respectively. Wells A4 through A11 and H4 through H11 are drug blanks and get medium alone at this point. The plates are then incubated at 37°C in 5% CO₂ until ready for drug addition.
# The first dilution of each drug is made in a test tube according to the dilution specified hereinbelow. The remaining dilutions are made in 96-well plates. All wells of each plate are filled with 225 µl of medium using a Cetus liquid handling system programed according to the plate filling worksheet. Twenty-five microliters (25 µl) of 2 diluted compounds are manually added to row 11 of a filled dilution plate in the same order in which the drugs will appear on the test plate. The two compounds are then serially diluted 10 fold from row 11 through row 4, using the Cetus liquid handling system, preprogramed with the serial dilution file worksheet.
# Using a multi-channel pipettor with […], 100 µl of each drug dilution is transferred to the test plate; 100 µl from wells A4 through H4 of the dilution plate to the same wells of the test plate. Wells B3 through G3 and B2 through G2 receive medium alone.
# Test plates are incubated at 37°C in 5% CO₂ in air for 7 days or until virus control cells are lysed as determined microscopically.
# An XTT-PMS solution is prepared immediately prior to its addition to the wells of the culture dish [1 mg/ml XTT; 2,3-bis(2-methoxy-4-nitro-5-sulfophenyl)-5-(phenylamino)carbonyl-2H-tetrazolium hydroxide solution in media without FCS]. The stock PMS (phenazine methosulfate (15.3 mg PMS/ml FBS)) solution is diluted 1:100 (0.153 mg/ml). […]
# P-388 Leukemia Cells = experiment: P-388 mouse leukemia cell culture cytotoxicity assay; assay type: cell-based; settings: P388, inhibitory (cytotoxicity) concentration for P-388 leukemia cells in culture, read-out: ED₅₀
# Excerpt: The ED₅₀ cytotoxicity concentrations determined for analogs 7a, 9a, 10a, 16a, and 17a in the P-388 mouse leukemia cell culture assay are given in Table II.
# [2] = Anti-HIV assay, toxicity to uninfected (normal) cells, MT-2; assay type: cell-based; settings: human, mt-2 cells, ID₅₀
# Excerpt: as §1, §2, §3, §4
# MT-2 = experiment: as above; assay type: cell-based; settings: Homo sapiens, MT2; Figure 2; screened at FCRF; normal cells; read-out: inhibitory concentration (IC₅₀) with respect to normal cells
# Excerpt: as §1, §2, §3, §4
# [3] = Anti-HIV assay, toxicity to uninfected (normal) cells, ATH-8; assay type: cell-based; settings: human, ath-8 cells; first ID₅₀ column (c2); Cell Line ATH-8
# Excerpt: as §1, §3
# (§5) Cells to be treated in 50 ml conical centrifuge tubes for 30 minutes with 1-2 µg/ml of polybrene at 37°C, and pelleted (8 min., 1200 RPM). Virus is added [in RMPI-1640, 10% fetal calf serum (FCS), with interleukin-2 (IL-2) (for ATH8 cells), and antibiotics] to provide an MOI of approximately 0.01. An MOI of 0.01 is obtained by adding 10³ infectious units of virus to 10⁵ cells. Medium alone is added to virus-free control cells. The treated or control cells are incubated for 1 hour at 37°C in 5% CO₂ in air. […] The plates are then incubated at 37°C in 5% CO₂ until ready for drug addition.
# HSV-1 = experiment: Activity against Herpes Simplex Virus Type 1; settings: statement in words
# [4] = Anti-HIV assay, toxicity to uninfected (normal) cells, MT-2C; assay type: cell-based; settings: human, mt-2c cells
# Excerpt: as §1, §3, §5
# [5] = Anti-HIV assay, toxicity to uninfected (normal) cells, CEM-C; assay type: cell-based; settings: human, first ID₅₀ column (c2), Cell Line CEM-C
# Excerpt: as §1, §3, §5
# HIV [6] = settings: background and literature; statement in words; cited from earlier work
# HIV [7] = settings: early clinical trials; statement in words; cited from earlier work
# [8] = Human immunodeficiency virus 1, Cell Line MT-2, read-out: ED₅₀
# [9] = Human immunodeficiency virus 1, Cell Line MT-2C, read-out: ED₅₀
smiles,measurement,setting,value
"CC(=O)OC[C@@H]1C=C[C@H](n2cnc3c(=O)[nH]c(N)nc32)C1 (racemic) [1α-acetate ester of 14a, (1α,2α)-4-(2-Amino-6-hydroxy-9H-purin-9-yl)-2-cyclopentenyl Acetoxycarbinol]",inhibition at 6 µg/mL,"HIV [1]; Human immunodeficiency virus 1, against HIV at 6 µg/ml",28%
"Nc1c(Cl)ncnc1N[C@H]1C=C[C@@H](CO)C1 (racemic) [Compound 3a, (±)-(1α,4α)-4-[(5-Amino-6-chloro-4-pyrimidinyl)-amino]-2-cyclopentenylcarbinol]",inhibit the infection and killing of human T lymphocytes (Th cells) by HIV,HIV [1],effective
Nc1c(Cl)ncnc1N[C@H]1CC[C@@H](CO)C1 (racemic) [Compound 3b],inhibit the infection and killing of human T lymphocytes (Th cells) by HIV,HIV [1],effective
"Nc1nc(Cl)cc(N[C@H]2C=C[C@@H](CO)C2)n1 (racemic) [Compound 4a, (±)-(1α,4α)-4-[(2-Amino-6-chloro-4-pyrimidinyl)-amino]-2-cyclopentenylcarbinol]",inhibit the infection and killing of human T lymphocytes (Th cells) by HIV,HIV [1],effective
Nc1nc(Cl)cc(N[C@H]2CC[C@@H](CO)C2)n1 (racemic) [Compound 4b],inhibit the infection and killing of human T lymphocytes (Th cells) by HIV,HIV [1],effective
"Nc1nc(Cl)c(N=Nc2ccc(Cl)cc2)c(N[C@H]2C=C[C@@H](CO)C2)n1 (racemic) [Compound 5a, (±)-(1α,4α)-4-{[2-Amino-6-chloro-5-(4-chlorophenyl)-azo]-4-pyrimidinyl]-amino}-2-cyclopentenylcarbinol]",inhibit the infection and killing of human T lymphocytes (Th cells) by HIV,HIV [1],effective
"Nc1nc(Cl)c(N)c(N[C@H]2C=C[C@@H](CO)C2)n1 (racemic) [Compound 6a, (±)-(1α,4α)-4-[(2,5-Diamino-6-chloro-4-pyrimidinylamino]-2 cyclopentenylcarbinol]",inhibit the infection and killing of human T lymphocytes (Th cells) by HIV,HIV [1],effective
"OC[C@@H]1C=C[C@H](n2cnc3c(Cl)ncnc32)C1 (racemic) [Compound 7a, (±)-(1α,4α)-4-(6-chloro-9H-purin-9-yl)-2-cyclopentenylcarbinol]",IC50,P-388 Leukemia Cells,12 mg/L
same,activity against HIV,HIV [1],active
same,inhibit the infection and killing of human T lymphocytes (Th cells) by HIV,HIV [1],effective
same,CC50,[2],58.5 mg/L
"O=c1[nH]cnc2c1ncn2[C@H]1C=C[C@@H](CO)C1 (racemic) [Compound 8a, (±)-(1α,4α)-4-(6-Hydroxy-9H-purin-9-yl)-2-cyclopentenylcarbinol]",inhibit the infection and killing of human T lymphocytes (Th cells) by HIV,HIV [1],effective
"Nc1ncnc2c1ncn2[C@H]1C=C[C@@H](CO)C1 (racemic) [Compound 9a, (±)-(1α,4α)-4-(6-Amino-9H-purin-9-yl)-2-cyclopentenylcarbinol]",IC50,P-388 Leukemia Cells,40 mg/L
same,EC50,HIV [1]; [8],2.3 mg/L
same,activity against HIV,HIV [1],active
same,inhibit the infection and killing of human T lymphocytes (Th cells) by HIV,HIV [1],effective
same,CC50,[2],50 mg/L
"OC[C@@H]1C=C[C@H](n2cnc3c(S)ncnc32)C1 (racemic) [Compound 10a, (±)-(1α,4α)-4-(6-Mercapto-9H-purin-9-yl)-2-cyclopentenylcarbinol]",IC50,P-388 Leukemia Cells,3 mg/L
same,activity against HIV,HIV [1],active
same,inhibit the infection and killing of human T lymphocytes (Th cells) by HIV,HIV [1],effective
same,CC50,[2],7.33 mg/L
"Nc1nc(Cl)c2ncn([C@H]3C=C[C@@H](CO)C3)c2n1 (racemic) [Compound 13a, (±)-(1α,4α)-4-(2-Amino-6-chloro-9H-purin-9-yl)-2-cyclopentenyl carbinol]",EC50,HIV [1]; [8],0.41 mg/L
same,activity against HIV,HIV [1],active
same,inhibit the infection and killing of human T lymphocytes (Th cells) by HIV,HIV [1],effective
same,CC50,[2],6.97 mg/L
"Nc1nc2c(ncn2[C@H]2C=C[C@@H](CO)C2)c(=O)[nH]1 (racemic) [Compound 14a, (±)-(1α,4α)-4-(2-Amino-6-hydroxy-9H-purin-9-yl)-2-cyclopentenyl carbinol]",therapeutic index (TI₅₀),"HIV [1]; Figure 2, screened at FCRF",about 667
same,EC50,"HIV [1]; Human immunodeficiency virus 1, ATH-8, Cell Line ATH-8, read-out: ED₅₀",0.2 mg/L
same,EC50,"HIV [1]; Human immunodeficiency virus 1, Figure 2, screened at FCRF, read-out: effective concentration (EC₅₀) with respect to infected cells",~0.15 mg/L
same,TI₅₀,"HIV [1]; earlier assay at Southern Research Institute, MT-2 cells cultured with H9/HTLV-IIIB",about 200
same,activity against HIV,HIV [1],strongly inhibits HIV infectivity in vitro
same,inhibit the infection and killing of human T lymphocytes (Th cells) by HIV,HIV [1],effective
same,IC50,MT-2,~100 mg/L
same,CC50,[3],55.3 mg/L
same,active against HSV-1,HSV-1,active
"Nc1nc(N)c2ncn([C@H]3C=C[C@@H](CO)C3)c2n1 (racemic) [Compound 15a, (±)-(1α,4α)-4-(2,6-Diamino-9H-purin-9-yl)-2-cyclopentenylcarbinol]",EC50,HIV [1]; [9],1.9 mg/L
same,activity against HIV,HIV [1],active
same,inhibit the infection and killing of human T lymphocytes (Th cells) by HIV,HIV [1],effective
same,CC50,[4],> 125 mg/L
Nc1nc(Cl)c2nnn([C@H]3C=C[C@@H](CO)C3)c2n1 (racemic) [Compound 16a],IC50,P-388 Leukemia Cells,1 mg/L
Nc1nc2c(nnn2[C@H]2C=C[C@@H](CO)C2)c(=O)[nH]1 (racemic) [Compound 17a],IC50,P-388 Leukemia Cells,4.5 mg/L
"Nc1nc(O)c2ncn([C@H]3C=C[C@@H](CO)C3)c2n1 [(-)14a, (1S,4R)-4-(2-Amino-6-hydroxy-9H-Purin-9-yl)-2-cyclopentenyl Carbinol]",EC50,HIV [1]; [9],0.325 mg/L
same,activity against HIV,HIV [1],highly active
same,CC50,[5],189 mg/L
same,CC50,"[4]; first ID₅₀ column (c2), Cell Line MT-2C, read-out: ID₅₀",135 mg/L
"[N-]=[N+]=N[C@H]1C[C@H](n2ccc(=O)[nH]c2=O)O[C@@H]1CO [CS-87, 3′-azido-2′,3′-dideoxyuridine]",activity against HIV in vitro,HIV [6],significant activity against HIV in vitro; also recorded: significantly inhibit HIV replication in vitro
"NC(=O)c1ncn([C@@H]2O[C@H](CO)[C@@H](O)[C@H]2O)n1 [Ribavirin, 1-β-D-Ribofuranosyl-1H-1,2,4-triazole-3-carboxamide]",effect in AIDS patients,HIV [7],inhibited viral replication
"Cc1cn([C@H]2C=C[C@@H](CO)O2)c(=O)[nH]c1=O [d4T, 2′,3′-dideoxy-2′,3′-didehydrothymidine]",activity against HIV in vitro,HIV [6],potent inhibitor of HIV replication in vitro
"OC[C@@H]1CC[C@H](n2cnc3c(O)ncnc32)O1 [ddI, 2′,3′-Dideoxyinosine]",activity against HIV in vitro,HIV [6],inhibit HIV-induced cytopathic effects in vitro; also recorded: significant antiviral activity against HIV in vitro
